Reference: patent US9156840B2, “D2 antagonists, methods of synthesis and methods of use” (ALTOS THERAPEUTICS, LLC, priority 2010, dated 2015)
Where a name gives a salt, the structure may show the parent alone. Read-outs that look alike come from different tables or passages of the source.

Target: T1, human D2 receptor (Homo sapiens, UniProt P14416)
T1 construct: expressed in transfected cells; cDNA from Origene clones TC308892 and SC123573
Test: D2 receptor radioligand binding assay (membranes of HEK-293 cells expressing human D2 receptor)
Experimental: Affinity for the dopamine D2 receptor was tested in vitro, and the following describes the construction of cell lines expressing human D2 receptor, as well as the binding assays themselves.
Establishment of Stable Cell Lines Expressing Either the Cloned Human D2S Receptor or the Cloned Human D2L Receptor.
The human D2 receptor exists in two isoforms: the short form (D2S) and the long form (D2L). The two isoforms are generated from the D2 gene by alternative splicing and the D2L isoform differs from the D2S isoform by the addition of 29 amino acids in the third intracellular loop of its protein structure.
To establish HEK-293 cell lines stably expressing either the human D2S or the human D2L, the human dopamine D2S receptor (Genebank Accession Number NM_016574) and human dopamine D2L receptor (Genebank Accession Number BC021195) were amplified by PCR from Origene cDNA clones TC308892 and SC123573 (respectively) using the following primers: 5-[…]-3 (SEQ ID NO: 1) sense and 5-[…]-3 (SEQ ID NO: 2) antisense. The resulting PCR products were respectively cloned into pENTR-D-TOPO (Invitrogen), sequenced and then transferred into the pCDNA3.2-DEST (Invitrogen) using the LR-clonasc gateway reaction (Invitrogen) and sequenced again to verify the genes sequence.
HEK293 cells were maintained in Eagles Minimum Essential Medium (MEM) supplemented with 0.292 g/L L-glutamine and 10% (v/v) fetal calf serum at 37° C. in a 5% CO2 humidified atmosphere. Cells were grown to 60-80% confluency in 10 cm dishes before transfection. Transfection of the D2S and D2L containing pcDNA3.2-DEST into HEK-293 cells were performed using Lipofectamine 2000 (Invitrogen). Transfected cells were seeded and diluted 2 days after transfection and maintained in culture medium supplemented with 500 μg/mL G418. The HEK-293 cell line expressing the huD2S (R2D2S) and the huD2L (R2D2L) were maintained in culture medium supplemented with 500 μg/mL G418.
D2 Receptor Binding Assays
HEK293 cells were in Eagles Minimum Essential Medium (MEM) supplemented with 10% FBS, 0.292 g/liter L-glutamine, 10^5 units/liter penicillin, 100 mg/liter streptomycin and […] Geneticin at 37° C. in a 5% CO2 humidified atmosphere. Cells were grown to 80-90% confluence and harvested with cell stripper (Cellgro #25-056-CI). Cells were then washed with PBS (2×). Cells were either pelleted and frozen at −80° C. or membranes were prepared immediately.
Cells from pellet were resuspended in homogenization buffer (15 mM Tris*HCl, 2 mM MgCl2*6H2O, 0.3 mM EDTA, 1 mM EGTA pH 7.4 @ 4° C.). Cells were then homogenized using a Polytron (PT 1200) homogenizer at setting 6 for 10 seconds. Crude membranes were pelleted at 39, 412 g for 15 min, at 4° C. (2×) in a Sorval RC6 plus centrifuge. Membranes were finally resuspended in resuspension buffer (50 mM Tris*HCl, 120 mM NaCl, 10 mM MgCl2*6H2O, 1 mM EDTA pH 7.4 @ 4° C.) and sonicated (Fisher Sonic Dismembrator) at setting 5 for 10 seconds.
The radioligand binding assays were conducted in microtiter plates (Costar #3961) with a final volume of 1.0 mL.
The membranes were thawed at room temperature, briefly homogenized using a sonicator, diluted in assay buffer and kept on wet ice until being added to the assay plate. Membranes were diluted to a final target tissue concentration of 10 μg protein per well. The specific binding should be greater than 80% with less than 10% total radioligand bound to minimize ligand depletion errors.
First compound of the invention (50 μL) or assay buffer (50 mM Tris*HCl, 120 mM NaCl, 5 mM MgCl2*6H2O, 1 mM EDTA, 5 mM KCl pH 7.4 @37° C. plus 0.025% BSA), buffer (700 μL) and then membrane (200 μL) were added to the deep well assay plate, which was then shaken for 10 minutes. Finally, radioligand (50 μL) was added.
The assay plates were incubated at 37° C. for 120 minutes.
The assay plate were filtered over 0.3% PEI pretreated glass fiber filtermats (GF/C) using a Packard Filtermate cell harvester. […]

[1] = radioligand displacement, HEK293 membranes, 37° C. for 120 minutes, read-out: Affinity Score (IC50 values for D2 on a scale of 1 through 5)

T1 sequence (P14416 whole entry): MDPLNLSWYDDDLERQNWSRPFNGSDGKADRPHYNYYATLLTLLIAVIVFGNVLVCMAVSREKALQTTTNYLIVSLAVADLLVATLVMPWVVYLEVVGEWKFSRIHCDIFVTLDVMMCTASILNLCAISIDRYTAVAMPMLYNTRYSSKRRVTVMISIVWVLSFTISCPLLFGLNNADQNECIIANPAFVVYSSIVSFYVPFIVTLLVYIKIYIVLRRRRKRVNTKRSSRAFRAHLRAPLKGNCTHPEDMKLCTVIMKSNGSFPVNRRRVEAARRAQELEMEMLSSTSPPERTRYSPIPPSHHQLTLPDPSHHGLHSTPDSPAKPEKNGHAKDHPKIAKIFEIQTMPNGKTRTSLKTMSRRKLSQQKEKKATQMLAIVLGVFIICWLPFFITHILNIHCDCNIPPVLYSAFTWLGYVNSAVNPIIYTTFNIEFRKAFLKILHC

Compound	IC50 [1]	IC50
COC(=O)c1cccc(N2CN(c3ccccc3)C3(CCN(CCCC(=O)c4ccccc4)CC3)C2=O)c1 [Compound 179, Methyl 3-(4-oxo-8-(4-oxo-4-phenylbutyl)-1-phenyl-1,3,8-triazaspiro[4.5]decan-3-yl)benzoate]	< 10 nM	
O=C(O)c1ccccc1CN1CN(c2ccccc2)C2(CCN(CCCN3C(=O)C4(CC4)c4ccccc43)CC2)C1=O [Compound 149, 2-((4-Cho-8-(3-(2′-oxospiro[cyclopropane-1,3′-indoline]-1′-yl)propyl)-1-phenyl-1,3,8-triazaspiro[4.5]decan-3-yl)methyl)benzoic acid]	< 10 nM	
O=C(CCCN1CCC2(CC1)C(=O)N(Cc1ccccc1C(=O)O)CN2C1CCCCC1)c1ccccc1 [Compound 218, 2-((1-Cyclohexyl-4-oxo-8-(4-oxo-4-phenylbutyl)-1,3,8-triazaspiro[4.5]decan-3-yl)methyl)benzoic acid, hydrochloride]	< 10 nM	
O=C(O)c1cccc(CN2CN(C3CCCCC3)C3(CCN(CCCC(=O)c4ccccc4)CC3)C2=O)c1 [Compound 176, 3-((1-cyclohexyl-4-oxo-8-(4-oxo-4-phenylbutyl)-1,3,8-triazaspiro[4.5]decan-3-yl)methyl)benzoic acid, hydrochloride]	< 10 nM	
O=C(O)c1ccc(N2CN(c3ccccc3)C3(CCN(CCCC(=O)c4ccccc4)CC3)C2=O)cc1 [Compound 182, 4-(4-Cho-8-(4-oxo-4-phenylbutyl)-1-phenyl-1,3,8-triazaspiro[4.5]decan-3-yl)benzoic acid, hydrochloride]	< 10 nM	
O=C(O)c1cccc(CN2CN(c3ccccc3)C3(CCN(CCCN4C(=O)COc5ccccc54)CC3)C2=O)c1 [Compound 71, 3-((4-Oxo-8-(3-(3-oxo-2H-benzo[b][1,4]oxazin-4(3H)-yl)propyl)-1-phenyl-1,3,8-triazaspiro[4.5]decan-3-yl)methyl)benzoic acid]	< 10 nM	
O=C(O)CC(c1ccccc1)N1CN(c2ccccc2)C2(CCN(CCCn3c(=O)[nH]c4ccccc43)CC2)C1=O (stereo not shown) [Compound 70, 3-(4-Oxo-8-(3-(2-oxo-2,3-dihydro-1H-benzo[d]imidazol-1-yl)propyl)-1-phenyl-1,3,8-triazaspiro[4.5]decan-3-yl)-3-phenylpropanoic acid]	< 10 nM	
CC1(C)C(=O)N(CCCN2CCC3(CC2)C(=O)N(Cc2ccccc2C(=O)O)CN3c2ccccc2)c2ccccc21 [Compound 137, 2-((8-(3-(3,3-Dimethyl-2-oxoindolin-1-yl)propyl)-4-oxo-1-phenyl-1,3,8-triazaspiro[4.5]decan-3-yl)methyl)benzoic acid]	< 10 nM	
O=C(O)[C@@H](c1ccccc1)N1CN(c2ccccc2)C2(CCN(CCCn3c(=O)[nH]c4ccccc43)CC2)C1=O [Compound 39, (R)-2-(4-oxo-8-(3-(2-oxo-2,3-dihydro-1H-benzo[d]imidazol-1-yl)propyl)-1-phenyl-1,3,8-triazaspiro[4.5]decan-3-yl)-2-phenylacetic acid]	< 10 nM	
O=C(O)c1cccc(CN2CN(c3ccc(F)cc3)C3(CCN(CCCN4C(=O)C5(CC5)c5ccccc54)CC3)C2=O)c1 [Compound 138, 3-((1-(4-Fluorophenyl)-4-oxo-8-(3-(2′-oxospiro[cyclopropane-1,3′-indoline]-1′-yl)propyl)-1,3,8-triazaspiro[4.5]decan-3-yl)methyl)benzoic acid]	< 10 nM	
CC1(C)C(=O)N(CCCN2CCC3(CC2)C(=O)N(Cc2ccc(C(=O)O)cc2)CN3c2ccccc2)c2ccccc21 [Compound 171, 4-((8-(3-(3,3-dimethyl-2-oxoindolin-1-yl)propyl)-4-oxo-1-phenyl-1,3,8-triazaspiro[4.5]decan-3-yl)methyl)benzoic acid, hydrochloride]	< 10 nM	
O=C(O)c1cccc(CN2CN(c3ccccc3)C3(CCN(CCCn4c(=O)[nH]c5ccc(Cl)cc54)CC3)C2=O)c1 [Compound 100, 3-((8-(3-(6-Chloro-2-oxo-2,3-dihydro-1H-benzo[d]imidazol-1-yl)propyl)-4-oxo-1-phenyl-1,3,8-triazaspiro[4.5]decan-3-yl)methyl)benzoic acid]	< 10 nM	
CC1(C)C(=O)N(CCCN2CCC3(CC2)C(=O)N(Cc2cccc(C(=O)O)c2)CN3c2ccc(F)cc2)c2ccccc21 [Compound 123, 3-((8-(3-(3,3-Dimethyl-2-oxoindolin-1-yl)propyl)-1-(4-fluorophenyl)-4-oxo-1,3,8-triazaspiro[4.5]decan-3-yl)methyl)benzoic acid]	< 10 nM	
O=C(O)c1cccc(CN2CN(c3ccccc3)C3(CCN(CCCn4c(=O)n(C5CC5)c5ccccc54)CC3)C2=O)c1 [Compound 120, 3-((8-(3-(3-Cyclopropyl-2-oxo-2,3-dihydro-1H-benzo[d]imidazol-1-yl)propyl)-4-oxo-1-phenyl-1,3,8-triazaspiro[4.5]decan-3-yl)methyl)benzoic acid]	< 10 nM	
CS(=O)(=O)Nc1cccc(CN2CN(c3ccccc3)C3(CCN(CCCN4C(=O)C5(CC5)c5ccccc54)CC3)C2=O)c1 [Compound 212, N-(3-((4-Oxo-8-(3-(2′-oxospiro[cyclopropane-1,3′-indoline]-1′-yl)propyl)-1-phenyl-1,3,8-triazaspiro[4.5]decan-3-yl)methyl)phenyl)methanesulfonamide]	< 10 nM	
CC1(F)C(=O)N(CCCN2CCC3(CC2)C(=O)N(Cc2ccccc2C(=O)O)CN3c2ccc(F)cc2)c2ccccc21 (stereo not shown) [Compound 163]	< 10 nM	
O=C(O)c1cccc(CN2CN(c3ccccc3)C3(CCN(CCCN4C(=O)Cc5ccccc54)CC3)C2=O)c1 [Compound 89, 3-((4-oxo-8-(3-(2-oxoindolin-1-yl)propyl)-1-phenyl-1,3,8-triazaspiro[4.5]decan-3-yl)methyl)benzoic acid, hydrochloride]	< 10 nM	
O=C(O)c1cccc(CN2CN(c3ccccc3)C3(CCN(CC4COc5ccccc5O4)CC3)C2=O)c1 (stereo not shown) [Compound 76, 3-((8-((2,3-Dihydrobenzo[b][1,4]dioxin-2-yl)methyl)-4-oxo-1-phenyl-1,3,8-triazaspiro[4.5]decan-3-yl)methyl)benzoic acid]	< 10 nM	
O=C(O)c1cccc(CN2CN(C3CCCCC3)C3(CCN(CCCn4c(=O)[nH]c5ccccc54)CC3)C2=O)c1 [Compound 72, 3-((1-cyclohexyl-4-oxo-8-(3-(2-oxo-2,3-dihydro-1H-benzo[d]imidazol-1-yl)propyl)-1,3,8-triazaspiro[4.5]decan-3-yl)methyl)benzoic acid, formate]	< 10 nM	
COC(=O)c1cccc(CN2CN(c3ccccc3)C3(CCN(CCCc4c[nH]c5ccccc45)CC3)C2=O)c1 [Compound 57, methyl 3-((8-(3-(1H-indol-3-yl)propyl)-4-oxo-1-phenyl-1,3,8-triazaspiro[4.5]decan-3-yl)methyl)benzoate]	< 10 nM	
O=C(O)c1ccccc1CN1CN(c2ccccc2)C2(CCN(CCCn3c(=O)[nH]c4ccccc43)CC2)C1=O [Compound 19, 2-((4-Oxo-8-(3-(2-oxo-2,3-dihydro-1H-benzo[d]imidazol-1-yl)propyl)-1-phenyl-1,3,8-triazaspiro[4.5]decan-3-yl)methyl)benzoic acid]	< 10 nM	
O=C(O[C@H]1CN2CCC1CC2)c1cccc(CN2CN(c3ccccc3)C3(CCN(CCCn4c(=O)[nH]c5ccccc54)CC3)C2=O)c1 [Compound 26, (R)-Quinuclidin-3-yl 3-((4-oxo-8-(3-(2-oxo-2,3-dihydro-1H-benzo[d]imidazol-1-yl)propyl)-1-phenyl-1,3,8-triazaspiro[4.5]decan-3-yl)methyl)benzoate]		< 10 nM
